Reference: paper PMC12748989 (Nature Communications, 2025)

Columns and labels:
[1] = tested on: PBMC; details: 12.5 µM
[2] = tested on: MDA-MB-231 cells

| Compound | Average (percentage cell inhibition), Mastoparan PBMC [1] [%] | Average (percentage cell inhibition), Dmastoparan MDA-MB231 12.5uM [2] [%] |
| --- | --- | --- |
| CC[C@H](C)[C@H](N)C(=O)N[C@@H](CC(N)=O)C(=O)N[C@@H](CC(C)C)C(=O)N[C@@H](CCCCN)C(=O)N[C@@H](C)C(=O)N[C@@H](CC(C)C)C(=O)N[C@@H](C)C(=O)N[C@H](C(=O)N[C@@H](CC(C)C)C(=O)N[C@@H](C)C(=O)N[C@@H](CCCCN)C(=O)N[C@@H](CCCCN)C(=O)N[C@H](C(=O)N[C@@H](CC(C)C)C(N)=O)[C@@H](C)CC)C(C)C [V8] | 11.0844 | 43.0954 |
| CC[C@H](C)[C@H](N)C(=O)N[C@@H](CC(N)=O)C(=O)N[C@@H](CC(C)C)C(=O)N[C@@H](CCCCN)C(=O)N[C@@H](C)C(=O)N[C@@H](CC(C)C)C(=O)N[C@H](C(=O)N[C@@H](C)C(=O)N[C@@H](CC(C)C)C(=O)N[C@@H](C)C(=O)N[C@@H](CCCCN)C(=O)N[C@@H](CCCCN)C(=O)N[C@H](C(=O)N[C@@H](CC(C)C)C(N)=O)[C@@H](C)CC)[C@@H](C)CC [I7] | 39.466 | 72.6071 |
| CC[C@H](C)[C@H](N)C(=O)N[C@@H](CC(N)=O)C(=O)N[C@@H](CC(C)C)C(=O)N[C@@H](CCCCN)C(=O)N[C@@H](C)C(=O)N[C@@H](CC(C)C)C(=O)N[C@@H](CO)C(=O)N[C@@H](C)C(=O)N[C@@H](CC(C)C)C(=O)N[C@@H](C)C(=O)N[C@@H](CCCCN)C(=O)N[C@@H](CCCCN)C(=O)N[C@H](C(=O)N[C@@H](CC(C)C)C(N)=O)[C@@H](C)CC [S7] | -4.112 | 34.1343 |
| CC[C@H](C)[C@H](N)C(=O)N[C@@H](CC(N)=O)C(=O)N[C@@H](CC(C)C)C(=O)N[C@@H](CCCCN)C(=O)N[C@@H](C)C(=O)N[C@@H](CC(C)C)C(=O)N[C@@H](C)C(=O)N[C@H](C(=O)N[C@@H](CC(C)C)C(=O)N[C@@H](C)C(=O)N[C@@H](CCCCN)C(=O)N[C@@H](CCCCN)C(=O)N[C@H](C(=O)N[C@@H](CC(C)C)C(N)=O)[C@@H](C)CC)[C@@H](C)O [T8] | 11.6569 | 35.9719 |
| CC[C@H](C)[C@H](N)C(=O)N[C@@H](CC(N)=O)C(=O)N[C@@H](CC(C)C)C(=O)N[C@@H](CCCCN)C(=O)N[C@@H](C)C(=O)N[C@@H](CC(C)C)C(=O)N[C@@H](C)C(=O)N[C@@H](C)C(=O)N[C@@H](CC(C)C)C(=O)N[C@@H](C)C(=O)N[C@@H](CCCCN)C(=O)N[C@@H](CCCCN)C(=O)N[C@@H](CCC(N)=O)C(=O)N[C@@H](CC(C)C)C(N)=O [Q13] | -1.132 | 9.2166 |
| CC[C@H](C)[C@H](N)C(=O)N[C@@H](CC(N)=O)C(=O)N[C@@H](CC(C)C)C(=O)N[C@@H](CCCCN)C(=O)N[C@@H](C)C(=O)N[C@@H](CC(C)C)C(=O)N[C@@H](CC(N)=O)C(=O)N[C@@H](C)C(=O)N[C@@H](CC(C)C)C(=O)N[C@@H](C)C(=O)N[C@@H](CCCCN)C(=O)N[C@@H](CCCCN)C(=O)N[C@H](C(=O)N[C@@H](CC(C)C)C(N)=O)[C@@H](C)CC [N7] | 10.586 | 28.8818 |
| CC[C@H](C)[C@H](N)C(=O)N[C@@H](CC(N)=O)C(=O)N[C@@H](CC(C)C)C(=O)N[C@H](C(=O)N[C@@H](C)C(=O)N[C@@H](CC(C)C)C(=O)N[C@@H](C)C(=O)N[C@@H](C)C(=O)N[C@@H](CC(C)C)C(=O)N[C@@H](C)C(=O)N[C@@H](CCCCN)C(=O)N[C@@H](CCCCN)C(=O)N[C@H](C(=O)N[C@@H](CC(C)C)C(N)=O)[C@@H](C)CC)[C@@H](C)O [T4] | 12.9948 | 29.8701 |
| CC[C@H](C)[C@H](N)C(=O)N[C@@H](CC(N)=O)C(=O)N[C@@H](CC(C)C)C(=O)N[C@@H](CCCCN)C(=O)N[C@@H](C)C(=O)N[C@@H](CC(C)C)C(=O)N[C@@H](C)C(=O)N[C@@H](C)C(=O)N[C@@H](CC(C)C)C(=O)N[C@@H](C)C(=O)N[C@@H](CCCCN)C(=O)N[C@@H](Cc1c[nH]cn1)C(=O)N[C@H](C(=O)N[C@@H](CC(C)C)C(N)=O)[C@@H](C)CC [H12] | 0.5315 | 31.16 |
| CC[C@H](C)[C@H](N)C(=O)N[C@@H](CC(N)=O)C(=O)N[C@@H](CC(C)C)C(=O)N[C@@H](CCCCN)C(=O)N[C@@H](C)C(=O)N[C@@H](CC(C)C)C(=O)N[C@@H](C)C(=O)N[C@@H](C)C(=O)N[C@@H](CC(C)C)C(=O)N[C@@H](C)C(=O)N[C@@H](CCC(N)=O)C(=O)N[C@@H](CCCCN)C(=O)N[C@H](C(=O)N[C@@H](CC(C)C)C(N)=O)[C@@H](C)CC [Q11] | 14.9552 | 41.2471 |
| CC[C@H](C)[C@H](N)C(=O)N[C@@H](CC(N)=O)C(=O)N[C@@H](CC(C)C)C(=O)N[C@@H](CC(C)C)C(=O)N[C@@H](C)C(=O)N[C@@H](CC(C)C)C(=O)N[C@@H](C)C(=O)N[C@@H](C)C(=O)N[C@@H](CC(C)C)C(=O)N[C@@H](C)C(=O)N[C@@H](CCCCN)C(=O)N[C@@H](CCCCN)C(=O)N[C@H](C(=O)N[C@@H](CC(C)C)C(N)=O)[C@@H](C)CC [L4] | 15.2128 | 34.0791 |
| CC[C@H](C)[C@H](N)C(=O)N[C@@H](CC(N)=O)C(=O)N[C@@H](CC(C)C)C(=O)N[C@@H](CCCCN)C(=O)N[C@@H](C)C(=O)N[C@@H](CC(C)C)C(=O)N[C@@H](C)C(=O)N[C@@H](C)C(=O)N[C@@H](CC(C)C)C(=O)N[C@@H](C)C(=O)N[C@@H](CCCCN)C(=O)N[C@@H](CCCCN)C(=O)N[C@H](C(=O)N[C@H](C(N)=O)[C@@H](C)CC)[C@@H](C)CC [I14] | 14.5337 | 33.7751 |
| CC[C@H](C)[C@H](N)C(=O)N[C@@H](CC(N)=O)C(=O)N[C@@H](CC(C)C)C(=O)N[C@@H](CCCCN)C(=O)N[C@@H](CCC(N)=O)C(=O)N[C@@H](CC(C)C)C(=O)N[C@@H](C)C(=O)N[C@@H](C)C(=O)N[C@@H](CC(C)C)C(=O)N[C@@H](C)C(=O)N[C@@H](CCCCN)C(=O)N[C@@H](CCCCN)C(=O)N[C@H](C(=O)N[C@@H](CC(C)C)C(N)=O)[C@@H](C)CC [Q5] | 0.7115 | 41.3502 |
| CC[C@H](C)[C@H](N)C(=O)N[C@@H](CC(N)=O)C(=O)N[C@@H](CC(C)C)C(=O)N[C@@H](CCCCN)C(=O)N[C@@H](C)C(=O)N[C@@H](CC(C)C)C(=O)N[C@@H](C)C(=O)N[C@@H](C)C(=O)N[C@@H](CC(C)C)C(=O)N[C@@H](C)C(=O)N[C@@H](CCCCN)C(=O)N[C@@H](Cc1ccc(O)cc1)C(=O)N[C@H](C(=O)N[C@@H](CC(C)C)C(N)=O)[C@@H](C)CC [Y12] | 22.3509 | 47.3973 |
| CC[C@H](C)[C@H](NC(=O)[C@H](CCCCN)NC(=O)[C@H](CCCCN)NC(=O)[C@H](C)NC(=O)[C@H](CC(C)C)NC(=O)[C@H](C)NC(=O)[C@H](C)NC(=O)[C@H](CC(C)C)NC(=O)[C@H](C)NC(=O)[C@H](CCCCN)NC(=O)[C@H](CC(C)C)NC(=O)[C@H](CC(N)=O)NC(=O)[C@@H]1CCCN1)C(=O)N[C@@H](CC(C)C)C(N)=O [P1] | -0.6303 | 43.0723 |
| CC[C@H](C)[C@H](N)C(=O)N[C@@H](CC(N)=O)C(=O)N[C@@H](CC(C)C)C(=O)N[C@@H](CCCCN)C(=O)N[C@@H](C)C(=O)N[C@H](C(=O)N[C@@H](C)C(=O)N[C@@H](C)C(=O)N[C@@H](CC(C)C)C(=O)N[C@@H](C)C(=O)N[C@@H](CCCCN)C(=O)N[C@@H](CCCCN)C(=O)N[C@H](C(=O)N[C@@H](CC(C)C)C(N)=O)[C@@H](C)CC)[C@@H](C)O [T6] | 0.8912 | 9.306 |
| CC[C@H](C)[C@H](N)C(=O)N[C@@H](CC(N)=O)C(=O)N[C@@H](CC(C)C)C(=O)N[C@@H](CCCCN)C(=O)N[C@@H](C)C(=O)N[C@@H](CCCNC(=N)N)C(=O)N[C@@H](C)C(=O)N[C@@H](C)C(=O)N[C@@H](CC(C)C)C(=O)N[C@@H](C)C(=O)N[C@@H](CCCCN)C(=O)N[C@@H](CCCCN)C(=O)N[C@H](C(=O)N[C@@H](CC(C)C)C(N)=O)[C@@H](C)CC [R6] | -10.6069 | 11.7131 |
| CC[C@H](C)[C@H](N)C(=O)N[C@@H](CC(N)=O)C(=O)N[C@@H](CC(C)C)C(=O)N[C@@H](CCCCN)C(=O)N[C@@H](CCCCN)C(=O)N[C@@H](CC(C)C)C(=O)N[C@@H](C)C(=O)N[C@@H](C)C(=O)N[C@@H](CC(C)C)C(=O)N[C@@H](C)C(=O)N[C@@H](CCCCN)C(=O)N[C@@H](CCCCN)C(=O)N[C@H](C(=O)N[C@@H](CC(C)C)C(N)=O)[C@@H](C)CC [K5] | 10.3023 | 39.1552 |
| CC[C@H](C)[C@H](N)C(=O)N[C@@H](CC(N)=O)C(=O)N[C@@H](CC(C)C)C(=O)N[C@@H](CCCCN)C(=O)N[C@@H](C)C(=O)N[C@@H](CC(C)C)C(=O)N[C@@H](C)C(=O)N[C@@H](C)C(=O)N[C@@H](CC(C)C)C(=O)N[C@@H](CC(C)C)C(=O)N[C@@H](CCCCN)C(=O)N[C@@H](CCCCN)C(=O)N[C@H](C(=O)N[C@@H](CC(C)C)C(N)=O)[C@@H](C)CC [L10] | 52.7294 | 86.3514 |
